{"source": "patent US5143902A", "about": "“Glucagon analogs with ASP^9 replacements or deletions” (The Rockefeller University, priority 1991, dated 1992)", "origin": "cited, not measured here", "details_in_all_cases": "background", "key": {"[1]": {"system": "glucagon receptor"}, "[2]": {"system": "another binding system in the hepatocyte membrane"}, "[3]": {"system": "adenylate cyclase"}}}
{"substance": "Nα- trinitrophenyl [12-homoarginine] glucagon", "values": [{"measurement": "binding to the glucagon receptor", "setting": "[1]", "result": "does bind to the glucagon receptor"}, {"measurement": "activation of another binding system producing inositol trisphosphate and calcium ions", "setting": "[2]", "result": "activates another binding system in the hepatocyte membrane leading to the production of inositol trisphosphate and calcium ions"}, {"measurement": "activation of adenylate cyclase", "setting": "[3]", "result": "without significant activation of adenylate cyclase"}]}
